Laboratory results from patent US11753407B2, “Compounds for treating spinal muscular atrophy” (PTC Therapeutics, Inc., priority 2012, dated 2023).

Tested on: SMN2 mRNA in tissues of C/C-allele SMA mice
Test: SMN2 mRNA RT-qPCR splicing assay in animal tissues
Format: in vivo
Conditions: brain and muscle, 10 mg/kg BID oral gavage 10 days, versus vehicle (FIG. 6)
Procedure: The reverse transcription-quantitative PCR-based (RT-qPCR) assay is used to quantify the levels of the full length and Δ7 SMN2 mRNA in tissues from mice treated with test compound.
Protocol. C/C-allele SMA mice are treated by oral gavage two times per day (BID) for 10 days with test compounds re-suspended in 0.5% HPMC and 0.1% Tween-80. Tissue samples were collected and snap frozen for RNA purification.
Tissue samples (20-40 mg) are homogenized in QIAzol Lysis Reagent for 2 minutes at 20 Hz in the TissueLyser II using one stainless steel bead. After addition of chloroform, the homogenate is separated into aqueous and organic phases by centrifugation. RNA partitioned to the upper, aqueous phase is extracted and ethanol is added to provide appropriate binding conditions. The sample is then applied to the RNeasy spin column from the RNeasy Mini Kit, where total RNA binds to the membrane. The RNA is eluted in RNase-free water then stored at −20° C. and subsequently analyzed using the TaqMan RT-qPCR on the 7900HT Thermocycler. Total RNA is diluted ten fold and 2.5 μL of the diluted sample is added to the TaqMan RT-qPCR mixture.
SMN2 spliced products are identified using the following primers and probe in Table 7. Primer SMN FL Forward B (SEQ ID NO. 7) hybridizes to a nucleotide sequence in exons 7 and 8, primer SMN Δ7 Forward B (SEQ ID NO. 8) hybridizes to a nucleotide sequence in exons 6 and 8, primer SMN Reverse B (SEQ ID NO. 9) hybridizes to a nucleotide sequence in exon 8, probe SMN Probe B (SEQ ID NO. 10) hybridizes to a nucleotide sequence in exon 8. These primers and probe hybridize to nucleotide sequences common to human SMN1 and SMN2 mRNA. Since the SMA patient cells used in Example 5 contain only the SMN2 gene, RT-qPCR can quantify only SMN2 full-length and Δ7 mRNA.
The SMN forward and reverse primers are used at final concentrations of 0.4 μM. The SMN probe is used at a final concentration of 0.15 μM. The SMN-GAPDH Mix (10 μL total volume) is prepared by combining 5 μL of 2× RT-PCR buffer, 0.4 μL of 25× RT-PCR enzyme mix, 0.5 μL of 20× GAPDH primer-probe mix, 1.505 μL of water, 2.5 μL of RNA solution, 0.04 μL of 100 μM forward primer, 0.04 μL of 100 μM reverse primer, and 0.015 μL of 100 μM SMN probe. […]
The increase of SMN2 FL and decrease in SMN2 Δ7 mRNA relative to those in tissues from animals treated with vehicle control are determined from real-time PCR data using a modified ΔΔCt method (as described in Livak and Schmittgen, Methods, 2001, 25:402-8). The amplification efficiency (E) is calculated from the slope of the amplification curve for SMN2 FL, SMN2 Δ7, and GAPDH individually. The abundances of SMN2 FL, SMN2 Δ7, and GAPDH are then calculated as (1+E)^−Ct, where Ct is the threshold value for each amplicon. […]

Row | SMILES | SMN2 FL mRNA | SMN2 Δ7 mRNA
1 | COc1ccc(-c2cc(=O)n3cc(N4CCNCC4)ccc3n2)cc1OC [Cpd 6, 2-(3,4-dimethoxyphenyl)-7-(piperazin-1-yl)-4H-pyrido[1,2-a]pyrimidin-4-one] | substantially more SMN2 FL mRNA | less SMN2 Δ7 mRNA
2 | Cc1cn2nc(-c3cc(=O)n4cc(N5CCN(C)CC5)ccc4n3)cc2c(C)n1 [Cpd 170, 2-(4,6-dimethylpyrazolo[1,5-a]pyrazin-2-yl)-7-(4-methylpiperazin-1-yl)-4H-pyrido[1,2-a]pyrimidin-4-one] | substantially more SMN2 FL mRNA | less SMN2 Δ7 mRNA
